One experiment deals with plasma sPLA2. The following applies: LPS 4 mg/kg s.c.; peptide 0.4 mg/kg s.c. 60 min later.
Another experiment deals with human plasma PLA2. The following applies: 25 nM peptide.
For a further experiment, the system named is PLA2. Conditions: cited from earlier work.

Consider 3 substances from patent US8106019B2, “CHEC-7 a novel sPLA2 inhibitor” (Philadelphia Health & Education Corporation, priority 2002, dated 2012).

Turning to CAHAQAESC, the “survival of neural cells” value in the experiment on neural cells is reported as “promotes survival of neural cells”.

Take CHEASQC [CHEC-7]: in the experiment on plasma sPLA2, the “LPS-induced increases in sPLA2 activity in plasma” value was “effective in attenuating”; the “effect on LPS-induced plasma sPLA2 compared with CHEC-9” value is “greater and more sustained effect”. Moreover, the “dependence of inhibition on substrate concentration” value in the experiment on human plasma PLA2 is listed as “less effective at the lowest substrate concentrations”. Further, the “ex vivo inhibition of human plasma PLA2” value with human plasma PLA2 (25% pooled ALS plasma, PED6 substrate) is reported as “inhibition”.

As to PMSF, the PLA2 activity result with PLA2 is recorded as “inhibits PLA2 activity”.
